Laboratory results: patent publication US5041355A, “High contrast photographic element including an aryl sulfonamidophenyl hydrazide containing ethyleneoxy groups” (Eastman Kodak Company, priority 1990, dated 1991)

Test: relative speed and contrast of silver halide coatings containing nucleator and incorporated booster, exposed and processed in developer
Conditions: for Relative Speed: 1 minute at 35° C., developer pH 10.5; for lower scale activity (speed): in words
Protocol: Each coating used in the following examples was prepared on a polyester support, using a mono-dispersed 0.24 μm AgBrI (2.5 mol % iodide) iridium-doped emulsion at 3.51 g/m^2 Ag, 2.54 g gel/m^2, and 1.08 g latex/m^2 where the latex is a copolymer of methyl acrylate, 2-acrylamido-2-methylpropane sulfonic acid, and 2-acetoacetoxyethylmethylacrylate. The silver halide emulsion was spectrally sensitized with 214 mg/Ag mol of anhydro-5,5'-dichloro-9-ethyl-3,3'-di-(3-sulfopropyl)oxacarbocyanine hydroxide, triethylene salt and the emulsion layer was overcoated with gelatin containing polymethylmethacrylate beads. The nucleating agent was added as a methanol solution to the emulsion melts at a level in millimoles (mM) per mole of silver as hereinafter indicated. An "incorporated booster" was added as a methanol solution in an amount of 64.6 milligrams per square meter of photographic element. The compound employed as the "incorporated booster" is represented by the formula: [drawing 8] where Pr represents n-propyl. Coatings were exposed for five seconds to a 3000° K. tungsten light source and processed for 1 minute at 35° C. in the developer solution.
To prepare the developer solution, a concentrate was prepared from the following ingredients:
The concentrate was diluted at a ratio of one part of concentrate to two parts of water to produce a working strength developing solution with a pH of 10.5.

[1] = concentration of nucleator 1.0 mM/Ag mole
[2] = concentration of nucleator 2.0 mM/Ag mole

Structure (SMILES)	Relative Speed [1]	Relative Speed [2]	speed compared with Test 2 (Test 7 (1.0 mM/Ag mole) versus Test 2 (2.0 mM/Ag mole))	lower scale activity (speed)	Relative Speed (concentration of nucleator 1.9 mM/Ag mole)
CC(C)c1ccc(C(C)C)c(S(=O)(=O)Nc2ccc(NNC=O)cc2)c1 [reference compound]	87	100			
CCCCCCCOCCOCCOCCOCCOCCOCCOCCOCCOCCOc1ccc(S(=O)(=O)Nc2ccc(NNC=O)cc2)cc1 [hydrazide I-4]	105	110	somewhat greater speed	beneficial effects upon lower scale activity (speed)	
CCCCCOCCOCCOCCOCCOc1ccc(S(=O)(=O)Nc2ccc(NNC=O)cc2)cc1OCCOCCOCCOCCOCCCCC [hydrazide I-8]	98			beneficial effects upon lower scale activity (speed)	105
CCCCCCCCOCCOCCOc1ccc(S(=O)(=O)Nc2ccc(NNC=O)cc2)cc1 [reference compound]	87	93			
